Laboratory results reported in ChEMBL document CHEMBL1201862, “PubChem BioAssay data set” (2004).
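Values below derive from 48-hour exposures of cells grown in 96-well plates, with endpoints linearly interpolated between the two concentrations bracketing the appropriate inhibition level. Here, GI50 denotes the concentration required for 50% inhibition of growth.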 Activity calls are given as the source filed them. No stated cut-off is given here; in the data, active = GI50 up to about 1.1 µM and inactive = higher.

What was measured:
Assay in all cases: NCI tumour cell line growth inhibition, 48 h
MDA-N = system: MDA-N
RXF 393 = system: RXF 393
LXFL 529 = system: LXFL 529
EKVX = system: EKVX
PC-3 = system: PC-3
TK-10 = system: TK-10
UACC-257 = system: UACC-257
M14 = system: M14
T47D = system: T47D
SK-MEL-2 = system: SK-MEL-2
COLO 205 = system: COLO 205
Hs-578T = system: Hs-578T
BT-549 = system: BT-549
CCRF-CEM = system: CCRF-CEM
SK-MEL-5 = system: SK-MEL-5
SF-295 = system: SF-295
SNB-19 = system: SNB-19
HCT-116 = system: HCT-116
SK-MEL-28 = system: SK-MEL-28
MCF7 = system: MCF7

Measured: GI50

O=C(CC1(O)C(=O)Nc2c(Cl)cc(Cl)cc21)c1cccc([N+](=O)[O-])c1 (stereo not given)
inactive: MDA-N 18.9 µM | RXF 393 28.6 µM | LXFL 529 15.1 µM | EKVX 52.5 µM | PC-3 32.1 µM | TK-10 > 55.8 µM | UACC-257 16 µM | M14 22.8 µM | T47D 63.5 µM | SK-MEL-2 34.3 µM | COLO 205 33.3 µM | Hs-578T 30.6 µM | BT-549 61 µM | CCRF-CEM 17.4 µM | SK-MEL-5 17.2 µM | SF-295 31 µM | SNB-19 > 73.1 µM | HCT-116 19.8 µM | SK-MEL-28 32.9 µM | MCF7 11.9 µM

COC(=O)NC1C(C)OC(OC2C/C=C(/C)C3C=CC4C(OC5CC(OC6CC(O)C(OC7CC(O)C(OC)C(C)O7)C(C)O6)C(O)C(C)O5)C(C)CC(C)C4C3(C)C(=O)C3=C(O)C4(CC(C)C(CO)=CC4/C=C\2C)OC3=O)CC1(C)[N+](=O)[O-] (stereo not given)
inactive: MDA-N 9.55 µM | RXF 393 12.3 µM | LXFL 529 2.7 µM | EKVX 5.26 µM | PC-3 15.9 µM | TK-10 10 µM | UACC-257 13.9 µM | M14 9.29 µM | T47D 11.5 µM | SK-MEL-2 11.4 µM | COLO 205 5.16 µM | Hs-578T 10.9 µM | BT-549 13.5 µM | CCRF-CEM 2.79 µM | SK-MEL-5 15.6 µM | SF-295 16.6 µM | SNB-19 19.1 µM | HCT-116 5.36 µM | SK-MEL-28 11.2 µM | MCF7 2.71 µM
